EP0209363B1, “Heteropeptides, intermediates in the biosynthesis of penicillins” (Antibioticos, S.A., priority 1985, dated 1987)
Blank lines part the entries; values can stand above or below the molecule they belong to. Where a SMILES comes first, the peptide text is derived from it. [ ]: non-standard residue; d: D form. The star is where a group is joined. PhAc = O=C(Cc1ccccc1)*

How the values were obtained:
[1] = target: T1, isopenicillin N synthetase (cyclase) (Hapsidospora chrysogena, UniProt P05189); test: Cyclization of peptide substrates by A. chrysogenum cyclase, penicillin formed measured by bioassay; format: biochemical, Acremonium chrysogenum
T1 construct: The mycelium was disrupted by sonification for 2 minutes; endogenous in cells
T1 sequence (P05189 1-338): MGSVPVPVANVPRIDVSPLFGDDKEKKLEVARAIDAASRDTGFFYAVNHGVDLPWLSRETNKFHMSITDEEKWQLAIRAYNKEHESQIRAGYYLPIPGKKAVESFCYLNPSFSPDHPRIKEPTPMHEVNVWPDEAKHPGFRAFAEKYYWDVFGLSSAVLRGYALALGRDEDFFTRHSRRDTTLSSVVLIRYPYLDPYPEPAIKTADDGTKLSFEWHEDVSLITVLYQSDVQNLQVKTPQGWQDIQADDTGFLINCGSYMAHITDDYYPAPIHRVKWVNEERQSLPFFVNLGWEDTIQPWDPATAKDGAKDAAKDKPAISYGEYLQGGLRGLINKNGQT
Procedure: Example 2 was repeated but using isopenicillin N synthetase extracted from a high producing strain of Acremonium chrysogenum (A. chrysogenum C-10 available from A. L. Demain).
Cells containing high isopenicillin N synthetase activity were obtained in a two stage process as described in J. Antibiot. 144:869-876. A. chrysogenum cultures were developed in seed medium for 4 days and these used to innoculate 60ml of chemically defined cephalosporin production medium, (CP medium). Cell free extracts were obtained as described by Ramos et al in Antimicrob. Agents Chemother. 27(3):380-387. Mycelium of A. chrysogenum was collected at 64 hours of cultivation in CP medium and resuspended in 30mM Tris-HCl buffer pH 8.0 containing 0.1mM dithiothreitol (DTT). The mycelium was disrupted by sonification for 2 minutes. The extract was centrifuged at 100,000 x g for 1 hour at 4°C in a Beckman L8-70 ultracentrifuge and the resulting crude extract was stored at -20 C. Isopenicillin N synthetase was purified as previously described in Antimicrob. Agents Chemother. 27(3):380-387.
Bioassay of the isopenicillin N and benzylpenicillin formed by the A. chrysogenum cyclase was performed in a similar way to the method described in Example 3 for assaying the penicillins produced by the cyclase extracted from P. chrysogenum.
Example 4 was repeated but using POCV as substrate in place of PCV. POCV was prepared as described in Example 5. The cyclase was extracted from A. chrysogenum AS-C-80 and incubated in the reaction mixture described in Example 5, with the exception that the pH of the Tris buffer was 7.8.

[2] = target: T2, isopenicillin N synthetase (cyclase) (Penicillium chrysogenum, UniProt P08703); test: Cyclization of peptide substrates by P. chrysogenum cyclase, penicillin formed measured by bioassay; format: biochemical
T2 construct: The mycelium was disrupted by sonification for 5 minutes; endogenous in cells
T2 sequence (P08703 1-331): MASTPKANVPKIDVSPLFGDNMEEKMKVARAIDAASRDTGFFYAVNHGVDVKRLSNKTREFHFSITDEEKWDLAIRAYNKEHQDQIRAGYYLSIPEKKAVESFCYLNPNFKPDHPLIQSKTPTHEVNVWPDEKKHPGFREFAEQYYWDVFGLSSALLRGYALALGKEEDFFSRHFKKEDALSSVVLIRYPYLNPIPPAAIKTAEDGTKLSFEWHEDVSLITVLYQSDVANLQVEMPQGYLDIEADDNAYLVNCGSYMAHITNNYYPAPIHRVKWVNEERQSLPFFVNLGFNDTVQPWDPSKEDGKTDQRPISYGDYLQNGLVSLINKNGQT
Procedure: Example 2 was repeated but using isopenicillin N synthetase extracted from a high producing strain of Penicillium chrysogenum (Penicillium chrysogenum AS-P-78, Luengo et al J. Antibiot. 144:869-876). Cells containing high isopenicillin N synthetase activity were obtained in a two stage process as described in J. Antibiot. 144:869-876. Cell free extracts were obtained as described by Ramos et al in Antimicrob. Agents Chemother. 27(3):380-387. Mycelium of P. chrysogenum was collected at 24 hours of cultivation in cephalosporin production medium (CP medium) and resuspended in 30mM Tris-HCl buffer pH 8.0 containing 0.1mM dithiothreitol (DTT). The mycelium was disrupted by sonification for 5 minutes. The extract was centrifuged at 100,000 x g for 1 hour at 4°C in a Beckman L8-70 ultracentrifuge and the resulting crude extract was stored at -20°C. Isopenicillin N synthetase were purified as previously described in Antimicrob. Agents Chemother. 27(3):380-387. The isopenicillin N and benzylpenicillin formed by cyclization of 0.2mM ACV or 2mM PCV using […] was assayed by the following bioassay. After the reactions were stopped with methanol, triplicate 50 µl samples were applied to wells 7mm in diameter in plates containing 15ml of Tryptic Soy Agar (TSA) medium (Difco) innoculated with Micrococcus luteus (0.5 ml of a culture having an O.D. of 1.0 at 600nm). Control samples of pure isopenicillin N or benzylpenicillin were treated with methanol in a similar way to the reaction samples. The samples in the assay plates were kept at 4°C for 3 hours to allow diffusion and then incubated at 30°C for 12 hours. The cell free extracts of P. chrysogenum AS-P-78 (5-20 mg of protein/ml) were incubated at 25°C for 30 minutes in a reaction mixture containing 30mM Tris-HCl buffer pH 8.1, 0.1mM FeSO₄, 6mM DTT, 3mM Na ascorbate and 3mM POCV. The pH was adjusted to 2.0.

[3] = target: T3, isopenicillin N synthetase (cyclase) (Streptomyces clavuligerus, UniProt P10621); test: Cyclization of peptide substrates by S. clavuligerus cyclase, penicillin formed measured by bioassay against M. luteus; format: biochemical; details: for kinetics of cyclization with the cyclase (Fig 1): formation of penicillin G from PCV, synthesis of isopenicillin N from ACV
T3 construct: The broken cell suspension was ultra-centrifuged at 100,000 x g; endogenous in cells; host or cells: Streptomyces clavuligerus ATCC 27064
T3 sequence (P10621 1-329): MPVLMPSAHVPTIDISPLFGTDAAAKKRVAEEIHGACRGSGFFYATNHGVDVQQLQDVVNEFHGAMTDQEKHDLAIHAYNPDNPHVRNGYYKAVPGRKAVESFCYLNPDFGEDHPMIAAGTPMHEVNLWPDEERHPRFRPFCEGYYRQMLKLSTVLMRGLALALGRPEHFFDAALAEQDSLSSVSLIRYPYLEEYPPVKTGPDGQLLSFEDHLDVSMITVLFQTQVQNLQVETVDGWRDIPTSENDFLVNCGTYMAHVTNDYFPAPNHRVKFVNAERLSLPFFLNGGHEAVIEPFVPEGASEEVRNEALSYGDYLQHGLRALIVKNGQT
Procedure: S. clavuligerus ATTC 27064 was maintained and grown as described by O'Sullivan et al. in Biochem. J. 179:47-52, 1979. 250 ml of culture were harvested by centrifugation at 10,000 x g for 5 minutes, washed four times by resuspension in sterile saline solution and centrifuged as before. The precipitated cells, resuspended in 25 ml of […] Tris-HCl buffer pH 7.5 containing 0.1mM DTT (TD buffer), were sonicated as described in J. Antibiot. 35:483-490, 1982, using a Branson Sonifier Cell Disruptor (B-12). The broken cell suspension was ultra-centrifuged at 100,000 x g (Beckman L5-65B) for 90 minutes, treated with 0.2 (w/v) protamine sulphate and the clear extract precipitated with ammonium sulphate (30-80% saturation, for example 50-80% saturation). The resulting precipitate was resuspended in 3 ml of TD buffer and applied to a Sephadex (Trade Mark) G-25, PD-10 column (Pharmacia). Aliquots of 1 ml were collected and assayed for isopenicillin N synthetase (cyclase) activity. Fractions 4 and 5, containing maximal activity, were mixed and employed for the reaction. The cyclase extracts were stored frozen at -20 C. Protein was measured by the method of Lowry et al described in J. Biol. Chem. 193:265-273, 1951.
Cyclization activity of the cyclase on ACV or PCV was assayed by a slightly modified version of the method described by Jensen et al. in J.Antibiot, 35:483-490, 1982 and in Antibiotics and Other Secondary Metabolites pages 141-164, Academic Press. The reaction mixture contained 30mM Tris-HCl buffer pH 7.5; 0.5 mM FeSO₄; 1mM bis-ACV or 3mM bis-PCV; 4mM DTT; 3 mM Na ascorbate and enzyme (10mg of protein) in a final reaction volume of 0.5 ml. The reaction mixture was incubated at 25°C for 90 min and stopped by adding 0.5ml of methanol.
The formation of isopenicillin N and benzylpenicillin was measured by bioassay against M. luteus ATCC 9341 following the hole plate method described in Biochem. J. 103:877-890, 1967. Penicillin N and benzylpenicillin were used as standards. One unit of antibiotic (penicillin N or benzylpenicillin) gave a zone of inhibition equivalent to 1µg or 1.58 µg of penicillin N or benzylpenicillin respectively with M. luteus luteus ATCC 9341 as test organism.

[4] = tested on: isopenicillin N synthetase, also called cyclase; details: added to the reaction mixture; cited from earlier work

inactivation of the reaction product by penicillinase [1]: completely inactivated
inactivation of the reaction product by penicillin acylase [2]: did not occur
inactivation of the reaction product by penicillinase [2]: completely inactivated
kinetics of cyclization with the cyclase (Fig 1) [3]: much faster
sensitivity of the cyclization product to penicillin acylase ([3]; isopenicillin N obtained from the cyclization of ACV): not sensitive to penicillin acylase
Isopenicillin N¹ or Benzylpenicillin² (U/ml) ([3]; substrate ACV (1mM bis-ACV), control reaction mixture, 25°C, 90 min, isopenicillin N measured using penicillin N as standard): 40 U/ml
Isopenicillin N¹ or Benzylpenicillin² (U/ml) ([3]; substrate ACV, + Penicillin acylase (2 I.U, 10 min.), isopenicillin N measured using penicillin N as standard): 38 U/ml
Isopenicillin N¹ or Benzylpenicillin² (U/ml) ([3]; substrate ACV, + β-lactamase, isopenicillin N measured using penicillin N as standard): 0 U/ml
SMILES: CC(C)[C@@H](NC(=O)[C@H](CS)NC(=O)CCC[C@H](N)C(=O)O)C(=O)O [ACV, δ-(L-α-aminoadipyl)-L-cysteinyl-D-valine, reference compound]

inactivation of the reaction product by penicillin acylase [1]: inactivated by penicillin acylase
inactivation of the reaction product by penicillinase [1]: completely inactivated
inactivation of the reaction product by penicillin acylase [2]: inactivated by penicillin acylase
inactivation of the reaction product by penicillinase [2]: completely inactivated
sensitivity of the cyclization product to β-lactamase I from Bacillus careus [3]: sensitive to β-lactamase I
Benzylpenicillin (U/ml) ([3]; complete reaction mixture with PCV as substrate): 0.15 U/ml
kinetics of cyclization with the cyclase (Fig 1) [3]: slow time dependent course
activity of the cyclization product against M. luteus ATTC 9341 ([3]; hole plate bioassay): active against M. luteus ATTC 9341
loss of antibacterial activity of the cyclization product ([3]; incubated with 2 I.U. of penicillin acylase at 30°C for 10 minutes): over 90 per cent
Isopenicillin N¹ or Benzylpenicillin² (U/ml) ([3]; substrate PCV (3mM bis-PCV), control reaction mixture, 25°C, 90 min, benzylpenicillin as standard): 0.15 U/ml
Isopenicillin N¹ or Benzylpenicillin² (U/ml) ([3]; substrate PCV, + Penicillin acylase (2 I.U, 10 min.), benzylpenicillin as standard): 0.01 U/ml
Isopenicillin N¹ or Benzylpenicillin² (U/ml) ([3]; substrate PCV, + β-lactamase, benzylpenicillin as standard): 0.00 U/ml
SMILES: CC(C)[C@@H](NC(=O)[C@H](CS)NC(=O)Cc1ccccc1)C(=O)O [PCV, phenylacetyl-L-cysteinyl-D-valine] (PhAc-Cys-[dV]-OH)

Penicillin V (U/ml) ([1]; complete reaction mixture, 3mM POCV, Tris buffer pH 7.8, cyclase from A. chrysogenum AS-C-80): 0.25 U/ml
Penicillin V (U/ml) ([2]; complete reaction mixture, 3mM POCV, Tris-HCl buffer pH 8.1, 25°C, 30 minutes, P. chrysogenum AS-P-78 cell free extract): 0.18 U/ml
SMILES: CC(C)[C@@H](NC(=O)[C@H](CS)NC(=O)COc1ccccc1)C(=O)O [POCV, phenoxyacetyl-L-cysteinyl-D-valine]

SMILES: N[C@@H](CCC(=O)N[C@@H](CS)C(=O)NCC(=O)O)C(=O)O [glutathione, γ-glutamyl-cysteinyl-glycine]
effect on ACV cyclization [4]: inhibited
